Tests used:
Test in all cases: MTT assay
RC0.1 = conditions: Homo sapiens, 72 h, read-out: GI50 ± SD
DU-145 = type: cell-based; conditions: Homo sapiens; Parental cell line DU-145, MTT, 72 h
MCF-7 = type: cell-based; conditions: Homo sapiens, MCF7; Parental cell line MCF-7, MTT, 72 h

Row | Structure (SMILES) | GI50 (RC0.1) [nM] | GI50 (DU-145) [nM] | GI50 (MCF-7) [nM]
1 | CC[C@@]1(O)C(=O)OCc2c1cc1n(c2=O)Cc2cc3ccccc3nc2-1 [CPT, Camptothecin, reference compound] | 7530 ± 1880 | 19 ± 9 | –
2 | COc1cccc2c1C(=O)c1c(O)c3c(c(O)c1C2=O)C[C@@](O)(C(=O)CO)C[C@@H]3O[C@H]1C[C@H](N)[C@H](O)[C@H](C)O1 [DOX, doxorubicin, reference compound] | – | – | 150 ± 3
